In US20060069132A1, “Azolecarboxamide herbicides” (priority 2004, published 2006):

Columns and labels:
[1] = tested on: rice; assay: Test B pre-/postemergence herbicide test; format: in vivo, Oryza sativa; details: preemergence
Outline: (§1)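 Greenhouse pot assay with simultaneous preemergence (treated seed) and postemergence (2–18 cm seedlings) applications of surfactant-containing, non-phytotoxic solvent formulations. Response scored visually 13–15 days later on a 0–100 scale, 100 meaning complete control.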

[2] = tested on: large crabgrass; assay: Test A pre-/postemergence herbicide test; format: in vivo, Digitaria sanguinalis
Outline: (§2)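 Seeds sown in sandy loam received a preemergence directed soil spray of compound in non-phytotoxic solvent with surfactant; postemergence plants (2–10 cm, one- to two-leaf stage) were sprayed to runoff at the same time. After ~10 days in greenhouse, injury was rated visually versus untreated controls (0 = no effect, 100 = complete control).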

[3] = tested on: pigweed; assay: Test B pre-/postemergence herbicide test; format: in vivo, Amaranthus retroflexus
Outline: (§3)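 Plants compared with untreated controls 13–15 days post-treatment and given a visual 0–100 injury score. Applications: preemergence to seeds; postemergence at 1- to 4-leaf (2–18 cm); paddy species flooded, 2-leaf stage. Vehicle non-phytotoxic, surfactant included.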

[4] = tested on: wild oat; assay: Test B postemergence herbicide test; format: in vivo, Avena fatua; details: scale 0 (no effect) to 100 (complete control)
Outline: (§4)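 Scale 0–100: zero equals no visible effect, 100 complete control, judged by eye relative to controls. Timing: 13 to 15 days in greenhouse post-treatment. Growth stage at spraying: two leaves (paddy) or one to four leaves, 2–18 cm (postemergence).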

[5] = tested on: corn; assay: Test B pre-/postemergence herbicide test; format: in vivo, Zea mays
Outline: as §3

[6] = tested on: barnyardgrass; assay: Test A pre-/postemergence herbicide test; format: in vivo, Echinochloa crus-galli
Outline: as §2

[7] = tested on: morningglory; assay: Test B pre-/postemergence herbicide test; format: in vivo, Ipomoea coccinea
Outline: as §1

[8] = tested on: blackgrass; assay: Test B postemergence herbicide test; format: in vivo, Alopecurus myosuroides; details: scale 0 (no effect) to 100 (complete control)
Outline: (§5)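 Greenhouse test; postemergence application to plants at 1–4 leaves (2–18 cm); paddy species at 2 leaves; evaluated visually vs controls at 13–15 days; scale 0–100 (100 = complete control).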

[9] = tested on: redroot pigweed; assay: Test A pre-/postemergence herbicide test; format: in vivo, Amaranthus retroflexus
Outline: as §2

[10] = tested on: velvetleaf; assay: Test B pre-/postemergence herbicide test; format: in vivo, Abutilon theophrasti
Outline: as §3

[11] = tested on: rice; assay: Test B flooded paddy test; format: in vivo, Oryza sativa; details: 1000 g ai/ha, visual rating, scale 0 to 100 (0 no effect, 100 complete control), 13 to 15 days
Outline: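 Formulated test chemicals went onto postemergence plants measuring 2 to 18 cm, at one to four leaves. For the paddy assay, species had reached two leaves. Scoring took place 13–15 days later by eye, relative to untreated plants, using 0 for no effect up to 100 for full control.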

[12] = tested on: giant foxtail; assay: Test A pre-/postemergence herbicide test; format: in vivo, Setaria faberi
Outline: as §2

[13] = tested on: giant foxtail; assay: Test B pre-/postemergence herbicide test; format: in vivo, Setaria faberi
Outline: as §3

[14] = tested on: Surinam grass; assay: Test B pre-/postemergence herbicide test; format: in vivo, Urochloa decumbens
Outline: as §3

[15] = tested on: large crabgrass; assay: Test B pre-/postemergence herbicide test; format: in vivo, Digitaria sanguinalis
Outline: as §3

[16] = tested on: barnyardgrass; assay: Test B pre-/postemergence herbicide test; format: in vivo, Echinochloa crus-galli
Outline: as §1

[17] = tested on: barnyardgrass; assay: Test B flooded paddy test; format: in vivo, Echinochloa crus-galli; details: 1000 g ai/ha, visual rating, scale 0 to 100 (0 no effect, 100 complete control), 13 to 15 days
Outline: as §5

[18] = tested on: cocklebur; assay: Test B pre-/postemergence herbicide test; format: in vivo, Xanthium strumarium
Outline: as §1

[19] = tested on: ducksalad; assay: Test B flooded paddy test; format: in vivo, Heteranthera limosa; details: 1000 g ai/ha, visual rating, scale 0 to 100 (0 no effect, 100 complete control), 13 to 15 days
Outline: as §5

[20] = tested on: velvetleaf; assay: Test A pre-/postemergence herbicide test; format: in vivo, Abutilon theophrasti
Outline: as §2

[21] = tested on: lambsquarters; assay: Test B pre-/postemergence herbicide test; format: in vivo, Chenopodium album
Outline: as §3

[22] = tested on: small flower umbrella sedge; assay: Test B flooded paddy test; format: in vivo, Cyperus difformis; details: 1000 g ai/ha, visual rating, scale 0 to 100 (0 no effect, 100 complete control), 13 to 15 days
Outline: as §5

[23] = tested on: wheat; assay: Test B postemergence herbicide test; format: in vivo, Triticum aestivum; parameters: key to Wheat plant response rating: 0 = no effect, 100 = complete control; details: scale 0 (no effect) to 100 (complete control)
Outline: as §4

[24] = tested on: morningglory; assay: Test A pre-/postemergence herbicide test; format: in vivo, Ipomoea spp.
Outline: as §2

[25] = Postemergence, 500 g ai/ha, 0 to 100 scale, 0 no effect, 100 complete control
[26] = Postemergence, 2000 g ai/ha, 0 to 100 scale, 0 no effect, 100 complete control
[27] = Preemergence, 500 g ai/ha, visual rating, 0 to 100 scale (0 no effect, 100 complete control)
[28] = Preemergence, 2000 g ai/ha, 0 to 100 scale, 0 no effect, 100 complete control
[29] = 500 g ai/ha, visual rating 0-100, 0 no effect, 100 complete control, preemergence
[30] = Postemergence, 500 g ai/ha, visual rating after 13 to 15 days, scale 0 (no effect) to 100 (complete control)
[31] = postemergence, 125 g ai/ha, visual rating, scale 0 (no effect) to 100 (complete control)
[32] = preemergence, 125 g ai/ha, 0 to 100 scale, 0 is no effect, 100 is complete control
[33] = Postemergence, 500 g ai/ha, visual rating after 13 to 15 days
[34] = postemergence, 125 g ai/ha, visual rating

CCn1nc(C(C)(C)C)cc1C(=O)Nc1cccc(C(=O)OCC2CC2)c1C [Compound 93]
5: Morningglory plant response rating [24, 25] | Morningglory plant response rating [24, 27]
15: Plant response rating, Crabgrass, Large [2, 26] | Plant response rating, Velvetleaf [20, 26]
90: Plant response rating, Lambsquarters [21, 30]
70: Crabgrass, Large plant response rating [2, 28] | Plant response rating, Pigweed [3, 29] | Pigweed plant response rating [9, 28] | Plant response rating, Lambsquarters [21, 29] | Sedge, Umbrella plant response rating [22]
0: Plant response rating, Rice ([1]; 500 g ai/ha, visual rating 0-100, 0 no effect, 100 complete control) | Plant response rating, Rice ([1]; 125 g ai/ha, 0 to 100 scale, 0 is no effect, 100 is complete control) | Plant response rating, Pigweed [3, 32] | Plant response rating, Morningglory [7, 32] | Plant response rating, Velvetleaf [10, 32] | Plant response rating, Surinam Grass [14, 29] | Plant response rating, Surinam Grass [14, 32] | Plant response rating, Barnyardgrass [16, 32] | Barnyardgrass plant response rating [17] | Plant response rating, Cocklebur [18, 29] | Plant response rating, Cocklebur [18, 32] | Plant response rating, Lambsquarters [21, 32]
35: Crabgrass, Large plant response rating [2, 27] | Foxtail, Giant plant response rating [12, 27]
20: Plant response rating, Corn [5, 30] | Barnyardgrass plant response rating [6, 25] | Pigweed plant response rating [9, 25] | Rice plant response rating [11] | Plant response rating, Crabgrass, Large [15, 29] | Plant response rating, Barnyardgrass [16, 29] | Morningglory plant response rating [24, 28]
40: Barnyardgrass plant response rating [6, 28] | Plant response rating, Morningglory [7, 30] | Pigweed plant response rating [9, 27]
60: Foxtail, Giant plant response rating [12, 28] | Lambsquarters plant response rating [21, 31]
25: Plant response rating, Barnyardgrass [6, 26] | Barnyardgrass plant response rating [6, 27] | Velvetleaf plant response rating ([20]; Preemergence, 2000 g ai/ha, visual rating, 0 to 100 scale (0 no effect, 100 complete control))
30: Plant response rating, Pigweed [3, 30] | Plant response rating, Pigweed [9, 26] | Plant response rating, Foxtail, Giant [13, 29]
10: Crabgrass, Large plant response rating [2, 25] | Pigweed plant response rating [3, 31] | Plant response rating, Oat, Wild [4, 33] | Oat, Wild plant response rating [4, 34] | Plant response rating, Corn [5, 29] | Corn plant response rating [5, 31] | Plant response rating, Corn [5, 32] | Plant response rating, Morningglory [7, 29] | Morningglory plant response rating [7, 31] | Plant response rating, Blackgrass [8, 33] | Blackgrass plant response rating [8, 34] | Plant response rating, Velvetleaf [10, 29] | Plant response rating, Velvetleaf [10, 30] | Velvetleaf plant response rating [10, 31] | Foxtail, Giant plant response rating [12, 25] | Plant response rating, Foxtail, Giant [12, 26] | Plant response rating, Foxtail, Giant [13, 30] | Foxtail, Giant plant response rating [13, 31] | Plant response rating, Foxtail, Giant [13, 32] | Plant response rating, Surinam Grass [14, 30] | Surinam Grass plant response rating [14, 31] | Plant response rating, Crabgrass, Large [15, 30] | Crabgrass, Large plant response rating [15, 31] | Plant response rating, Crabgrass, Large [15, 32] | Plant response rating, Barnyardgrass [16, 30] | Barnyardgrass plant response rating [16, 31] | Ducksalad plant response rating [19] | Velvetleaf plant response rating [20, 25] | Velvetleaf plant response rating [20, 27] | Plant response rating, Wheat [23, 33] | Wheat plant response rating [23, 34] | Plant response rating, Morningglory [24, 26]
50: Plant response rating, Cocklebur [18, 30] | Cocklebur plant response rating [18, 31]
